The target in experiment [1] is T1, Prostaglandin G/H synthase 1 (Ovis aries) (UniProt P05979).
T1 sequence (whole entry): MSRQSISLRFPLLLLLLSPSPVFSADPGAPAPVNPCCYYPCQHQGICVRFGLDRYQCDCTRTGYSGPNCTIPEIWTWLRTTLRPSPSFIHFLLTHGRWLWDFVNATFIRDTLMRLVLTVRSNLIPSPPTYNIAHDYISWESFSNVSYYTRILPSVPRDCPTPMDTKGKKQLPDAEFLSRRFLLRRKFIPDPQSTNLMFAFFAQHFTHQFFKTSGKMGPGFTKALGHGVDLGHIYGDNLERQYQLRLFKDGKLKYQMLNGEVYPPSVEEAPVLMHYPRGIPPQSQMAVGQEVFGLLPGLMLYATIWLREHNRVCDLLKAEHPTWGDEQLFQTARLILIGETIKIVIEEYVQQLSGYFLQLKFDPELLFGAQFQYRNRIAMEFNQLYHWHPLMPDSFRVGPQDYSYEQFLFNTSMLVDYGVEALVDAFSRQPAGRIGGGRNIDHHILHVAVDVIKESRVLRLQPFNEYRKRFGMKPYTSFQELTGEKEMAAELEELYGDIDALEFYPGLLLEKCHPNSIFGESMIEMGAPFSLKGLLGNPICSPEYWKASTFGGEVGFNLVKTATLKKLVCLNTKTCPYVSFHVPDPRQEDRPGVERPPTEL
The note with it: 115 nM.
Description: Inhibition of ovine COX1 under saturated substrate level preincubated at 115 nM for 17 mins by TLC

Experiment [2] addresses T2, Prostaglandin G/H synthase 2 (Homo sapiens) (UniProt P35354).
T2 sequence (whole entry): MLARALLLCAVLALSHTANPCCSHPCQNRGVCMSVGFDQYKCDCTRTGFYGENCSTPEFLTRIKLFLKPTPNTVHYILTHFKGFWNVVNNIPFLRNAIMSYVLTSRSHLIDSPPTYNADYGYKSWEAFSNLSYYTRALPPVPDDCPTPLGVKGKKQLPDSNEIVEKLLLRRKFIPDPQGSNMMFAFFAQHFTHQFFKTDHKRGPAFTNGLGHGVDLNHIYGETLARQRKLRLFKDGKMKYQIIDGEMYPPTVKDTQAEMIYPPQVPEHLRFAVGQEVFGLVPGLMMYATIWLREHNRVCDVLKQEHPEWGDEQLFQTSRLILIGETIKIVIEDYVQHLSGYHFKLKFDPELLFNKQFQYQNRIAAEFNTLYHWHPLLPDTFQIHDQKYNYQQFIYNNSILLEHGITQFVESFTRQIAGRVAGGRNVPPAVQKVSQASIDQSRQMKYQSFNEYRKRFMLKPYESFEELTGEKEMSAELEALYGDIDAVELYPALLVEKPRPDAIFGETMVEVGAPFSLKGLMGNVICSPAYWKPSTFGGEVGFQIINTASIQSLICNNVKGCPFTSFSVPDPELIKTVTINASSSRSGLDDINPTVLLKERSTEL
The experiment can be described thus: Inhibition of COX2.

Calls of active or inactive are those of the source. The rule behind the calls is not given here.

Broadly, the inhibition is the relative decrease from the control value, in per cent. `CSc1ccc(/C=C2/C(C)=C(CC(=O)O)c3cc(F)ccc32)cc1` registered an inhibition in experiment [1] of 75%.
`CSc1ccc(/C=C2/C=C(CC(=O)O)c3cc(F)ccc32)cc1` had an inhibition in experiment [1] of 20%.
As for `COc1ccc2c(c1)c(CC(=O)O)cn2C(=O)c1ccc(Cl)cc1`, in experiment [2], the outcome was inactive.

Values taken from ChEMBL document CHEMBL1158428, “The influence of double bond geometry in the inhibition of cyclooxygenases by sulindac derivatives” (Bioorg Med Chem Lett, 2009).
